Calls of active or inactive are those of the source. The calls are words filed in the database; no cut-off is given here.
Columns and labels:
Sus scrofa = organism: Sus scrofa; test: Displacement of [3H]-(+)-MK 801 from PCP binding site of NMDA receptor in pig brain cortex membranes at 10 uM after 120 mins by solid scintillation counting; assay type: cell membranes
Mus musculus [1] = test: Antiinflammatory activity in tropically applied arachidonic acid-induced ear dermatitis ICR mouse model assessed as reduction in ear swelling administered 30 mins prior and 15 mins after arachidonic acid addition measured 60 mins post arachidonic acid challenge; assay type: functional
Mus musculus [2] = test: Antiinflammatory activity in oxazolone-induced delayed type hypersensitivity BALB/c mouse model assessed as ear thickness at 0.5 mg applied topically on ear administered 3 hrs prior to oxazolone challenge on day 7 to 12 post sensitization followed by re-administration of compound on day 13 to 18 without oxazolone challenge measured on day 9 to 15; assay type: functional
Mus musculus [3] = test: Antiinflammatory activity in oxazolone-induced delayed type hypersensitivity BALB/c mouse model assessed as ear thickness at 2.5 mg applied topically on ear administered 3 hrs prior to oxazolone challenge on day 7 to 12 post sensitization followed by re-administration of compound on day 13 to 18 without oxazolone challenge measured on day 9 to 15; assay type: functional
Mus musculus [4] = test: Antiinflammatory activity in oxazolone-induced delayed type hypersensitivity BALB/c mouse model assessed as ear thickness at 0.5 mg applied topically on ear administered 3 hrs prior to oxazolone challenge on day 7 to 12 post sensitization followed by re-administration of compound on day 13 to 18 without oxazolone challenge measured after day 16; assay type: functional
Mus musculus [5] = test: Antiinflammatory activity in oxazolone-induced delayed type hypersensitivity BALB/c mouse model assessed as hyperplastic epidrmis at 0.5 and 2.5 mg applied topically on ear administered 3 hrs prior to oxazolone challenge on day 7 to 12 post sensitization followed by re-administration of compound on day 13 to 18 without oxazolone challenge measured on day 19 by H and E staining based assay; assay type: functional
Mus musculus [6] = test: Antiinflammatory activity in oxazolone-induced delayed type hypersensitivity BALB/c mouse model assessed as reduction in edema formation at 0.5 and 2.5 mg applied topically on ear administered 3 hrs prior to oxazolone challenge on day 7 to 12 post sensitization followed by re-administration of compound on day 13 to 18 without oxazolone challenge measured on day 19 by H and E staining based assay; assay type: functional
Mus musculus [7] = test: Antiinflammatory activity in oxazolone-induced delayed type hypersensitivity BALB/c mouse model assessed as effect on ear thickness at 0.5 and 2.5 mg applied topically on ear administered 3 hrs prior to oxazolone challenge on day 7 to 12 post sensitization followed by re-administration of compound on day 13 to 18 without oxazolone challenge measured on day 19 by H and E staining based assay; assay type: functional
Mus musculus [8] = test: Antiinflammatory activity in oxazolone-induced delayed type hypersensitivity BALB/c mouse model assessed as effect on ear weight at 0.5 and 2.5 mg applied topically on ear administered 3 hrs prior to oxazolone challenge on day 7 to 12 post sensitization followed by re-administration of compound on day 13 to 18 without oxazolone challenge measured on day 19; assay type: functional
[9] = molecular target: Sigma non-opioid intracellular receptor 1 (Cavia porcellus) (UniProt Q60492); test: Displacement of [3H]-(+)-pentazocine from sigma1-type […] receptor in guinea pig cortex membranes at 1 uM after 120 mins by solid scintillation counting; assay type: cell membranes
Sigma non-opioid intracellular receptor 1 (Cavia porcellus), sequence (Q60492 whole entry): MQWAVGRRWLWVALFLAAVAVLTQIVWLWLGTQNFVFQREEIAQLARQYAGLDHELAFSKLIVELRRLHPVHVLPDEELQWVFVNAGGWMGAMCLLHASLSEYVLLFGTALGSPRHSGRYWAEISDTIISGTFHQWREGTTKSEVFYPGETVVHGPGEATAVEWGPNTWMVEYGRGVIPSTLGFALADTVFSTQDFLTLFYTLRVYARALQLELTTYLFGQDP

Rattus norvegicus [10] = organism: Rattus norvegicus; test: Displacement of [3H]-DTG from sigma 2 receptor in rat liver membranes at 1 uM after 120 mins by scintillation counting; assay type: cell membranes; details: Membrane
[11] = molecular target: T1, Kappa-type opioid receptor (Homo sapiens, UniProt P41145); test: Agonist activity at recombinant human kappa-type opioid receptor expressed in HEK293 cells at 1 uM after 30 mins by [35S]GTPgammaS binding assay; assay type: functional, cell-based
T1 sequence (P41145 whole entry): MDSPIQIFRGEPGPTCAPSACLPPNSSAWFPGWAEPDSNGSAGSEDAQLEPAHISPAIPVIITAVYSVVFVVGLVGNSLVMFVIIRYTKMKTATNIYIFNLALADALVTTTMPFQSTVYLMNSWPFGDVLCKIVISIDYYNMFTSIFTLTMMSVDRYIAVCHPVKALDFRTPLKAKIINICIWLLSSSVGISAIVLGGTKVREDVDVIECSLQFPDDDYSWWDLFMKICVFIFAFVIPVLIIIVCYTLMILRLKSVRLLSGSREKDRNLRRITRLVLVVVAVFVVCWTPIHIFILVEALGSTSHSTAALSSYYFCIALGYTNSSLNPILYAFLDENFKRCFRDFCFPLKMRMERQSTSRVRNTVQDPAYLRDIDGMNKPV

Mus musculus [12] = test: Antiinflammatory activity in oxazolone-induced delayed type hypersensitivity BALB/c mouse model assessed as reduction in ear weight at 2.5 mg applied topically on ear administered 3 hrs prior to oxazolone challenge on day 7 to 12 post sensitization followed by re-administration of compound on day 13 to 18 without oxazolone challenge measured on day 19; assay type: functional
Mus musculus [13] = test: Antiinflammatory activity in oxazolone-induced delayed type hypersensitivity BALB/c mouse model assessed as reduction in ear swelling at 2.5 mg applied topically on ear administered 3 hrs prior to oxazolone challenge on day 7 to 12 post sensitization followed by re-administration of compound on day 13 to 18 without oxazolone challenge measured daily prior to treatment from day 7 to 19; assay type: functional
Mus musculus [14] = test: Antiinflammatory activity in tropically administered oxazolone-induced delayed type hypersensitivity BALB/c mouse model assessed as effect on ear weight administered 3 hrs prior to oxazolone challenge on day 7 to 12 post sensitization followed by re-administration of compound on day 13 to 18 without oxazolone challenge measured on day 19; assay type: functional
Mus musculus [15] = test: Antiinflammatory activity in tropically administered oxazolone-induced delayed type hypersensitivity BALB/c mouse model assessed as reduction in ear thickness administered 3 hrs prior to oxazolone challenge on day 7 to 12 post sensitization followed by re-administration of compound on day 13 to 18 without oxazolone challenge measured on day 19; assay type: functional
Mus musculus [16] = test: Antiinflammatory activity in tropically administered oxazolone-induced delayed type hypersensitivity BALB/c mouse model assessed as reduction in T-lymphocytes in ear administered 3 hrs prior to oxazolone challenge on day 7 to 12 post sensitization followed by re-administration of compound on day 13 to 18 without oxazolone challenge measured on day 19 by DAPI-staining based fluorescence microscopic analysis; assay type: functional, cell-based
Mus musculus [17] = test: Antiinflammatory activity in oxazolone-induced delayed type hypersensitivity BALB/c mouse model assessed as reduction in ear weight at 0.1 to 2.5 mg applied topically on ear administered 3 hrs prior to oxazolone challenge on day 7 to 12 post sensitization followed by re-administration of compound on day 13 to 18 without oxazolone challenge measured on day 19; assay type: functional
Mus musculus [18] = test: Antiinflammatory activity in oxazolone-induced delayed type hypersensitivity BALB/c mouse model assessed as effect on histology changes at 0.1 to 2.5 mg applied topically on ear administered 3 hrs prior to oxazolone challenge on day 7 to 12 post sensitization followed by re-administration of compound on day 13 to 18 without oxazolone challenge measured daily prior to treatment from day 7 to 19 by H and E staining based assay; assay type: functional
Mus musculus [19] = test: Antiinflammatory activity in oxazolone-induced delayed type hypersensitivity BALB/c mouse model assessed as reduction in ear thickness at 0.1 to 2.5 mg applied topically on ear administered 3 hrs prior to oxazolone challenge on day 7 to 12 post sensitization followed by re-administration of compound on day 13 to 18 without oxazolone challenge measured on day 19 by H and E based staining; assay type: functional
Mus musculus [20] = test: Antiinflammatory activity in oxazolone-induced delayed type hypersensitivity BALB/c mouse model assessed as reduction in inflammatory infiltrate at 0.1 to 2.5 mg applied topically on ear administered 3 hrs prior to oxazolone challenge on day 7 to 12 post sensitization followed by re-administration of compound on day 13 to 18 without oxazolone challenge measured on day 19 by H and E based staining; assay type: functional
[21] = molecular target: Mu-type opioid receptor (Cavia porcellus) (UniProt P97266); test: Displacement of [3H]DAMGO from mu-type opioid receptor in guinea pig brain membranes at 1 uM after 120 mins by solid scintillation counting; assay type: cell membranes; details: Membrane
Mu-type opioid receptor (Cavia porcellus), sequence (P97266 whole entry): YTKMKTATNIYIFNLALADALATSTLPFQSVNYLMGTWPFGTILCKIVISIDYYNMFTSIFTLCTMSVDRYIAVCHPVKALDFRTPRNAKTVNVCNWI

Cavia porcellus [22] = organism: Cavia porcellus; test: Selectivity ratio of Ki for delta-type opioid receptor in guinea pig brain membranes to Ki for kappa-type opioid receptor in guinea pig brain membranes; assay type: cell membranes
Mus musculus [23] = test: Antiinflammatory activity in oxazolone-induced delayed type hypersensitivity BALB/c mouse model assessed as reduction in ear swelling at 0.1 to 2.5 mg applied topically on ear administered 3 hrs prior to oxazolone challenge on day 7 to 12 post sensitization followed by re-administration of compound on day 13 to 18 without oxazolone challenge measured daily prior to treatment from day 7 to 19; assay type: functional
[24] = Plasma concentration in Wistar Han rat at 1 mg/kg, iv measured 0.25 hrs post compound administration; assay type: ADME, organism-based
[25] = Plasma concentration in Wistar Han rat at 5 mg/kg, iv measured 0.25 hrs post compound administration; assay type: ADME, organism-based
[26] = Plasma concentration in Wistar Han rat at 1 mg/kg, iv measured 1 hr post compound administration; assay type: ADME, organism-based
[27] = Plasma concentration in Wistar Han rat at 5 mg/kg, iv measured 1 hr post compound administration; assay type: ADME, organism-based
Brain = test: Drug level in Wistar Han rat brain at 1 mg/kg, iv measured 1 hr post compound administration; assay type: ADME, organism-based; details: in vivo, 1 h, BLD = below limit of detection
[28] = Drug level in Wistar Han rat brain at 5 mg/kg, iv measured 1 hr post compound administration; assay type: ADME, organism-based; details: read-out: Drug uptake
[29] = Ratio of drug level in brain to plasma in Wistar Han rat at 5 mg/kg, iv after 1 hr; assay type: ADME, organism-based; details: read-out: BPR
Rattus norvegicus [30] = test: Toxicity in Wistar Han rat assessed as clinical signs changes at 1 mg/kg, iv after 1 hr; assay type: organism-based; details: in vivo
Rattus norvegicus [31] = test: Toxicity in Wistar Han rat assessed as assessed as clinical signs changes at 5 mg/kg, iv after 1 hr; assay type: organism-based; details: in vivo
[32] = molecular target: Kappa-type opioid receptor (Cavia porcellus, UniProt P41144); test: Displacement of [3H]U-69,593 from kappa-type opioid receptor in guinea pig brain membranes after 120 mins by solid scintillation counting; assay type: cell membranes, Membrane
Kappa-type opioid receptor (Cavia porcellus, UniProt P41144), sequence (P41144 whole entry): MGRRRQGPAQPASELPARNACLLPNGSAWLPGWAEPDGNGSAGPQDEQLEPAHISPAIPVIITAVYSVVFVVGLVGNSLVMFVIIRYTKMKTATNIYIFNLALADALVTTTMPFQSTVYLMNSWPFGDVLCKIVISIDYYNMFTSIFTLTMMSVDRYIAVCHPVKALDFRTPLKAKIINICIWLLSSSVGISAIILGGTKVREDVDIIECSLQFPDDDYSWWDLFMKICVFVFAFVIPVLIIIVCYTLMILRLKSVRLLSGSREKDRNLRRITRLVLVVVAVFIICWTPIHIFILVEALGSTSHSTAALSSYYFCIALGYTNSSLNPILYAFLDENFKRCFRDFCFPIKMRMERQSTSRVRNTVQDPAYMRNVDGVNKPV

Mu-type opioid receptor = Mu-type opioid receptor (Cavia porcellus, UniProt P97266); test: Displacement of [3H]DAMGO from mu-type opioid receptor in guinea pig brain membranes after 120 mins by solid scintillation counting; assay type: cell membranes, Membrane
Mu-type opioid receptor, sequence (P97266 whole entry): as the sequence (P97266 whole entry) above

[33] = Displacement of [3H]DPDPE from delta-type opioid receptor in guinea pig brain membranes after 120 mins by solid scintillation counting; assay type: cell membranes, Cavia porcellus, Membrane
[34] = Displacement of [3H]-(+)-MK 801 from PCP binding site of NMDA receptor in pig brain cortex membranes after 120 mins by solid scintillation counting; assay type: cell membranes, Sus scrofa
[35] = molecular target: T1, Kappa-type opioid receptor; test: Agonist activity at recombinant human kappa-type opioid receptor expressed in HEK293 cells after 30 mins by [35S]GTPgammaS binding assay; assay type: functional, cell-based
Cavia porcellus [36] = organism: Cavia porcellus; test: Displacement of [3H]DPDPE from delta-type opioid receptor in guinea pig brain membranes at 1 uM after 120 mins by solid scintillation counting; assay type: cell membranes; details: Membrane
[37] = Stability of the compound in buffer; assay type: physicochemical

## COC(=O)N1CCN(C(=O)Cc2ccc(Cl)c(Cl)c2)[C@@H]2[C@@H](N3CCCC3)CCC[C@@H]21
Sus scrofa
  inhibition: 2%
Mus musculus [1]
  Activity: Dose-dependent effect
Mus musculus [2]
  Activity: inactive
Mus musculus [3]
  Activity: Active
Mus musculus [4]
  Activity: inactive
Mus musculus [5]
  Activity: Active
Mus musculus [6]
  Activity: Active
Mus musculus [7]
  Activity: inactive
Mus musculus [8]
  Activity: inactive

## CS(=O)(=O)N1CCN(C(=O)Cc2ccc(Cl)c(Cl)c2)[C@@H]2[C@@H](N3CC[C@H](O)C3)CCC[C@@H]21
[9]
  inhibition: 0%
Rattus norvegicus [10]
  inhibition: 15%
Sus scrofa
  inhibition: 0%
[11]
  Activity: 106%
Mus musculus [12]
  Activity: Active
Mus musculus [13]
  Activity: Active
Mus musculus [14]
  Activity: Dose-dependent effect
Mus musculus [15]
  Activity: Dose-dependent effect
Mus musculus [16]
  Activity: Dose-dependent effect
Mus musculus [17]
  Activity: Dose-dependent effect
Mus musculus [18]
  Activity: Active
Mus musculus [19]
  Activity: Dose-dependent effect
Mus musculus [20]
  Activity: Dose-dependent effect

## COC(=O)N1CCN(C(=O)Cc2ccc(F)c(Cl)c2)[C@@H]2[C@@H](N3CC[C@H](F)C3)CCC[C@@H]21
[21]
  inhibition: 0%
[9]
  inhibition: 0%
Rattus norvegicus [10]
  inhibition: 0%
Sus scrofa
  inhibition: 0%
[11]
  Activity: 92%
Cavia porcellus [22]
  Ratio Ki: 100
Mus musculus [17]
  Activity: inactive
Mus musculus [23]
  Activity: inactive
Mus musculus [18]
  Activity: Active

## COC(=O)N1CCN(C(=O)Cc2ccc(Cl)c(Cl)c2)[C@@H]2[C@@H](N3CC[C@H](O)C3)CCC[C@@H]21.Cl
[24]
  concentration at 0.25 h: 599 ng/mL
[25]
  concentration at 0.25 h: 1440 ng/mL
[26]
  concentration at 1 h: 128 ng/mL
[27]
  concentration at 1 h: 669 ng/mL
Brain
  Drug uptake: Bld
[28]
  concentration at 1 h: 74.1 ng/g
[29]
  Kp at 1 h: 0.11
Rattus norvegicus [30]
  Activity: Non-Toxic
Rattus norvegicus [31]
  Activity: Non-Toxic

## CN(C)S(=O)(=O)N1CCN(C(=O)Cc2ccc(Cl)c(Cl)c2)[C@@H]2[C@@H](N3CCCC3)CCC[C@@H]21
[32]
  Ki: 0.95 nM
Mu-type opioid receptor
  Ki: 21 nM
[33]
  Ki: 11 nM
[34]
  Ki: 2500 nM
[35]
  EC50: 2.2 nM

## CC(C)OC(=O)CN1CCN(C(=O)Cc2ccc(Cl)c(Cl)c2)[C@@H]2[C@@H](N3CCCC3)CCC[C@@H]21
[32]
  Ki: 1.4 nM
[21]
  inhibition: 7%
Cavia porcellus [36]
  inhibition: 0%
[9]
  inhibition: 0%
Rattus norvegicus [10]
  inhibition: 26%
Sus scrofa
  inhibition: 1%
[35]
  EC50: 5 nM
[11]
  Activity: 94%
[37]
  Stability: Unstable
